Data published in patent publication US9422336B2 (priority 2012, dated 2016).

Assays:
[1] = tested on: acute visceral pain model in mice; experiment: acute visceral pain model in mice (acetic acid writhing); conditions: n=6
[2] = tested on: sciatic nerve injured limb (hyperalgesia); experiment: thermal test (paw withdrawal latency) after partial sciatic nerve injury; type: in vivo, C57BL/6 male mice; conditions: 2 mg i.p., N=6; for temperature-induced pain, paw withdrawal latency: injured limb, day 5, 10 and 30 after surgery, vs untreated (DMSO solvent), FIG. 5
Protocol: (§1) Surgical procedures were performed under Halothane (2-3%) anesthesia. Partial sciatic nerve injury was made by tying a tight ligature with 9-0 silk suture around ⅓ to ½ the diameter of the sciatic nerve, as had been described (Malmberg A B and Basbaum A I. Pain 1998; 76:215-222). In mice with sham operation, the sciatic nerve was exposed but not ligated. The mice were subsequently habituated to the test environment for at least 1 hour before thermal test and von Foley hair test. In thermal test, the paw withdrawal latency was determined as an indicator for pain. […], the stimulus intensity was adjusted to give a 10-second withdrawal latency in the normal mouse, while the cutoff in the absence of a response was 20 seconds. The mechanical sensitivity with von Foley hairs was assessed by the up-down paradigm (Chaplan et al, J Neurosci Methods 1994; 53:53-66). The filament for the testing paradigm was chosen to be 0.3-gm.
(§2) The peptide 5 as shown in SEQ ID NO: 5 was tested for its anti-hyperalgesia effects in mice receiving sciatic nerve ligation. Results from the thermal test of the sham operated mice and the nerve injured mice were compared in parallel on day 5, 10 and 30 after the surgery.

[3] = tested on: sciatic nerve injured limb (allodynia); experiment: von Foley hair test (mechanical stimulation) after partial sciatic nerve injury; type: in vivo, C57BL/6 male mice; conditions: 2 mg i.p., N=6 per time point
Protocol: as §1
as §2, with “The same animal model in example 3 was used. The” for “The”, “anti-allodynia” for “anti-hyperalgesia”, “mechanical stimulation (von Foley test)” for “thermal test”

[4] = tested on: H5N1 viruses; type: cell-based, influenza A virus H5N1; conditions: 0.001-10 μM; MDCK monolayer; 5,000 pfu/ml; 3 days; FIG. 7 left panel
[5] = tested on: H1N1 viruses; type: cell-based, influenza A virus H1N1; conditions: 0.001-10 μM; MDCK monolayer; 5,000 pfu/ml; 3 days; FIG. 7 right panel

Row | Compound | p, onset of pain, peptide 5 vs this substance ([1]; peptides 2 mg, morphine 1 mg i.p., FIG. 3) | p, total writhing number in 30 minutes, peptide 5 vs this substance ([1]; peptides 2 mg, morphine 1 mg i.p., FIG. 4) | p (ANOVA), paw withdrawal latency, untreated vs treated injured ipsilateral limb ([2]; day 5, 10 or 30) | temperature-induced pain, paw withdrawal latency [2] | temperature-induced pain, paw withdrawal latency ([2]; listed as peptide 5) | p (ANOVA), von Foley hair threshold, untreated vs treated injury-ipsilateral limb ([3]; day 5, 10 or 30) | allodynia, von Foley hair threshold ([3]; injured limb, day 5, 10 and 30 after surgery, vs untreated (pure water), FIG. 6, listed as peptide 5) | inhibition of replication of H5N1 viruses in vitro [4] | inhibition of replication of H1N1 viruses in vitro [5] | onset of the pain induced by intra-peritoneal injection of acetic acid (onset of the 1st writhing) ([1]; 2 mg peptide i.p. 30 min before 1 ml 1% acetic acid i.p., control water alone, FIG. 3) | total writhing number in 30 minutes after acetic acid injection ([1]; 2 mg peptide i.p. 30 min before 1 ml 1% acetic acid i.p., control water alone, FIG. 4) | total writhing number in 30 minutes after acetic acid injection ([1]; 2 mg peptide i.p. 30 min before 1 ml 1% acetic acid i.p., control water alone, FIG. 4, listed as peptide 5)
1 | CN1CC[C@]23c4c5ccc(O)c4O[C@H]2[C@@H](O)C=C[C@H]3[C@H]1C5 [morphine, reference compound] | > 0.05 | > 0.05 | – | – | – | – | – | – | – | – | – | –
2 | DEAQETAVSSHEQD ((1)..(14) residues 1-14 of rabbit alpha1-antiproteinase F; listed as Oryctolagus cuniculus) [Peptide 5] | – | – | < 0.005 | significantly reduced the temperature-induced pain | significantly increase the tolerance to the heat-induced pain | < 0.005 | significantly increase the tolerance to mechanical stimuli | potent effects in inhibiting the replication | potent effects in inhibiting the replication | significant delay in the onset of the pain | significant reduction in the total writhing number | reduced total writhing episodes
